Experimental findings from ChEMBL document CHEMBL1158912, “Structure and in vitro antiviral activity of sesquiterpene glycosides from Calendula arvensis” (J Nat Prod, 1990) are described below.

In brackets after ≈: the same amount, converted by molar mass.

Series [1] in a line: Cytotoxicity against golden hamster CER cells assessed as cell viability at 100 ug/mL after 48 hrs by neutral red assay. The format is cell-based, Mesocricetus auratus.
Series [2] deals with HeLa. The experiment in a line: Cytotoxicity against human HeLa cells assessed as cell viability at 100 ug/mL after 48 hrs by neutral red assay. The series is classed as cell-based.
Series [3] is described as follows: Cytotoxicity against golden hamster CER cells assessed as cell viability at 20 ug/mL after 48 hrs by neutral red assay. The format is cell-based, Mesocricetus auratus.
For series [4], the system named is HeLa. The experiment in a line: Cytotoxicity against human HeLa cells assessed as cell viability at 20 ug/mL after 48 hrs by neutral red assay. The series is classed as cell-based.
In series [5] the test system is Vesicular stomatitis virus. The series is described as follows: Antiviral activity against VSV infected in CER cells assessed as reduction in plaque formation at 20 ug/ml after 48 hrs by neutral red assay. The format is functional. The arrangement: scale not given: the % may be the effect or the level left.
For series [6], the system named is Vesicular stomatitis virus. The experiment in a line: Antiviral activity against VSV infected in CER cells assessed as reduction in plaque formation at 4 ug/ml after 48 hrs by neutral red assay. The format is functional. The arrangement: scale not given: the % may be the effect or the level left.
Series [7] concerns Vesicular stomatitis virus. The series is described as follows: Antiviral activity against VSV infected in CER cells assessed as reduction in plaque formation at 0.8 ug/ml after 48 hrs by neutral red assay. The series is classed as functional. More on the design: scale not given: the % may be the effect or the level left.
The test system of series [8] is Vesicular stomatitis virus. The experiment in a line: Antiviral activity against VSV infected in CER cells assessed as reduction in plaque formation after 48 hrs by neutral red assay. The series is classed as functional.
Series [9] deals with rhinovirus A1B. The series is described as follows: Antiviral activity against HRV1B infected in human HeLa cells assessed as inhibition of virus-induced cytopathicity at 20 ug/ml after 48 hrs. The series is classed as functional, Human rhinovirus 1B. The arrangement: scale not given: the % may be the effect or the level left. Background: Cytopathic effects are the visible damage that an infection or toxin causes in cultured cells.

Series [10] has as its system rhinovirus A1B. The experiment in a line: Antiviral activity against HRV1B infected in human HeLa cells assessed as inhibition of virus-induced cytopathicity at 4 ug/ml after 48 hrs. The series is classed as functional, Human rhinovirus 1B. More on the design: scale not given: the % may be the effect or the level left.
Series [11] deals with rhinovirus A1B. The experiment in a line: Antiviral activity against HRV1B infected in human HeLa cells assessed as inhibition of virus-induced cytopathicity at 0.8 ug/ml after 48 hrs. More on the design: scale not given: the % may be the effect or the level left. The series is classed as functional, Human rhinovirus 1B.
Series [12] deals with Vesicular stomatitis virus. The experiment in a line: Antiviral activity against VSV infected in CER cells assessed as reduction in plaque formation at 100 ug/ml after 48 hrs by neutral red assay. The format is functional. More on the design: scale not given: the % may be the effect or the level left.
In series [13] the test system is Vesicular stomatitis virus. The experiment in a line: Antiviral activity against VSV infected in CER cells assessed as reduction in plaque formation at 50 ug/ml after 48 hrs by neutral red assay. The series is classed as functional. The arrangement: scale not given: the % may be the effect or the level left.
The subject of series [14] is rhinovirus A1B. The series is described as follows: Antiviral activity against HRV1B infected in human HeLa cells assessed as inhibition of virus-induced cytopathicity at 100 ug/ml after 48 hrs. The format is functional, Human rhinovirus 1B. More on the design: scale not given: the % may be the effect or the level left.
Series [15] deals with rhinovirus A1B. The experiment in a line: Antiviral activity against HRV1B infected in human HeLa cells assessed as inhibition of virus-induced cytopathicity at 50 ug/ml after 48 hrs. The series is classed as functional, Human rhinovirus 1B. The arrangement: scale not given: the % may be the effect or the level left.

In the case of `C/C=C(\C)C(=O)O[C@H]1[C@H](O[C@]2(C)CC[C@@H]3[C@H]([C@@H]4[C@H](C)CC[C@@H]42)C3(C)C)O[C@H](C)[C@H](O)[C@@H]1O`, the Activity result in series [1] is reported as “Non-toxic”; in [2], “Non-toxic”; in series [3], “Non-toxic”; in [4], “Non-toxic”; in series [5] it was 22%; in series [6], 13%. Besides, the Activity in series [7], in series [9], in [10] and in series [11] was 0% in each case. Also, in series [8], the MIC50 is over 20 µg/mL.

Regarding `CCC(C)C(=O)O[C@H]1[C@H](O[C@]2(C)CC[C@@H]3[C@H]([C@@H]4[C@H](C)CC[C@@H]42)C3(C)C)O[C@H](C)[C@H](O)[C@@H]1O` (some centres undefined), the Activity entry in series [1] is given as “Non-toxic”; in series [2], “Non-toxic”; in series [3], “Non-toxic”; in series [4], “Non-toxic”; in [5] it was 30%; in series [6], 20%. Moreover, the Activity was found to be 5% in series [7], 0% in [9], 0% in series [10] and 0% in series [11]. The MIC50 in series [8] was over 20 µg/mL.

For the compound `CC(=O)O[C@H]1[C@H](O[C@]2(C)CC[C@@H]3[C@H]([C@@H]4[C@H](C)CC[C@@H]42)C3(C)C)O[C@H](C)[C@H](O)[C@@H]1O`, the Activity entry in [1] was “Non-toxic”; in series [2], “Non-toxic”; in series [3], “Non-toxic”; in series [4], “Non-toxic”; in [5], 10%; in series [6], 7%. In addition, the Activity in series [7], in [9], in series [10] and in series [11] was 0% in each case. For the same compound, the MIC50 in series [8] is over 20 µg/mL.

Turning to `CC/C(C)=C\C(=O)O[C@H]1[C@H](O[C@]2(C)CC[C@@H]3[C@H]([C@@H]4[C@H](C)CC[C@@H]42)C3(C)C)O[C@H](C)[C@H](O)[C@@H]1O`, the Activity entry is on record as “Non-toxic” in [1]; “Non-toxic” in series [2]; “Non-toxic” in [3]; “Non-toxic” in series [4]; 22% in [5]; 18% in series [6]. The Activity is on record as 5% in [7], 0% in series [9], 0% in series [10] and 0% in series [11]. Further, the MIC50 in [8] was over 20 µg/mL.

Consider `CC(C)C(=O)O[C@H]1[C@H](O[C@]2(C)CC[C@@H]3[C@H]([C@@H]4[C@H](C)CC[C@@H]42)C3(C)C)O[C@H](C)[C@H](O)[C@@H]1O`, for which the Activity result in series [1] is given as “Non-toxic”; in series [2] it was “Non-toxic”; in series [3], “Non-toxic”; in [4], “Non-toxic”; in series [5], 9%; in series [6], 0%. The Activity in [7], in series [9], in [10] and in series [11] was 0% each time. Also, the MIC50 in series [8] was over 20 µg/mL.

Turning to `C[C@@H]1CC[C@H]2[C@@H]1[C@H]1[C@@H](CC[C@@]2(C)O[C@@H]2O[C@H](C)[C@H](O)[C@H](O)[C@H]2O)C1(C)C`, the Activity entry in series [1] is reported as “Non-toxic”; in series [2] it was “Non-toxic”; in series [3] it was “Non-toxic”; in series [4], “Non-toxic”; in [5], 73%; in series [6], 19%. Besides, the Activity in series [7] was found to be 8%; in series [9] it was 0%; in series [10] it was 0%; in [11] it was 0%. In addition, the MIC50 in series [8] is 14 µg/mL (≈ 38 µM).

For `CC(C)[C@@H]1CC[C@@H](C)C23CC[C@@](C)(O[C@@H]4O[C@H](C)[C@H](O)[C@H](O)[C@H]4O)[C@@H]2[C@@H]13` (some centres undefined) [EPICUBEBOL GLYCOSIDE], the Activity entry is “Non-toxic” in series [1]; “Non-toxic” in series [2]; “Non-toxic” in [3]; “Non-toxic” in series [4]; 100% in [12]; 90% in series [13]. In addition, the Activity in [5] is listed as 4%; in series [6] it was 0%; in [14], 25%; in series [15] it was 0%; in series [9], 0%; in [10], 0%. Also, the MIC50 in series [8] was 36 µg/mL (≈ 97.7 µM).
